Test results reported in patent publication US12398154B2, “Azaquinazoline pan-KRas inhibitors” (Mirati Therapeutics, Inc., priority 2020, dated 2025).

Columns and labels:
pERK in H358 cells = experiment: Inhibition of KRas phosphorylation of ERK (Cisbio HTRF pERK assay); conditions: Homo sapiens, NCI-H358, read-out: Inhibition (HTRF IC50) of KRas-mediated Phosphorylation of ERK, H358
Protocol: To harvest cells from flask using 0.05% Trypsin/EDTA solution. Add 10 mL of media to stop trypsinizing. Pipette the cells into a conical bottom 50 mL centrifuge tube and centrifuge 5 min×1000 rpm. • 2. Re-suspend the cell pellet in media, take a cell count, and then adjust the cell density using fresh media. • 3. Seed 6,000 cells into cell culture plate with 50 μL media. […] Incubate cell plate overnight in a 37° C., 5% CO2 incubator. • Compound titrations • 1. Use Tecan to complete the compound addition. Compounds start from 10 uM top, 3-fold dilution, and 10 doses. The final DMSO concentration is 0.8%. Dispensed 0.2 uM Trametinib as Min control. • 2. Incubate cell plate for 3 hrs in the incubator. • Detection with cisbio pERK HTRF kit • 1. […] At the end of the compound treatment, flick-off the media. • 3. Add 35 μL of lysis buffer per well using a Multidrop Combi. Then place on a plate agitator shaking at 300 rpm at 4° C. for 40 mins. • 4. Make up the HTRF antibody buffer. For each assay plate, mix 50 μL of d2-conjugate antibody with 950 μL of detection buffer. Similarly, mix 50 μL of Cryptate antibody with 950 μL of detection buffer. Then mix the two diluted antibodies together. • 5. Dispense 3.4 μL the antibody buffer to wells of an empty assay plate. Seal the plate and centrifuge plate 30 sec×1000 rpm. • 6. At the end of the 4° C. lysis, centrifuge the lysate plates 3 mins×1500 rpm. • 7. Use the Bravo to transfer 13.6 μL of lysate from cell culture plate to assay plate.
Then incubate assay plate for 2 hrs at room temperature. […] At the end of incubation, read plate on the Envision after centrifuging plate 30 sec× • 1000 rpm.

KRas G12D = KRas G12D (Homo sapiens, UniProt P01116, G12D); experiment: biochemical;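 further: TR-FRET displacement binding assay on KRas, read after a one-hour incubation at room temperature, IC50 fitted from percent-of-control values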
Protocol: (§2) The ability of a compound to bind to KRas was measured using a TR-FRET displacement assay. […] After a 60-minute incubation at room temperature, the reaction was measured using a BMG LABTECH CLARIO star Plus via TR-FRET. […] The POC values were fit to a 4-parameter IC50 equation and the IC50 value reported.

pERK in HCT116 cells = experiment: Inhibition of KRas phosphorylation of ERK (Cisbio HTRF pERK assay); conditions: Homo sapiens, HCT-116, read-out: Inhibition (HTRF IC50) of KRas-mediated Phosphorylation of ERK, HCT116
pERK in MKN1 cells = experiment: as above; conditions: Homo sapiens, MKN-1, 3 h, read-out: Inhibition (HTRF IC50) of KRas-mediated Phosphorylation of ERK, MKN1
pERK in PSN1 cells = experiment: as above; conditions: Homo sapiens, PSN1, 3 h, read-out: Inhibition (HTRF IC50) of KRas-mediated Phosphorylation of ERK, PSN1
KRas G12R = KRas G12R (Homo sapiens, UniProt P01116, G12R); experiment: biochemical;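 further: TR-FRET displacement assay of compound binding to KRas, read after one hour at room temperature, potency from a four-parameter fit of percent-of-control values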
Protocol: as §2

pERK in H727 cells = experiment: Inhibition of KRas phosphorylation of ERK (Cisbio HTRF pERK assay); conditions: Homo sapiens, NCI-H727, read-out: Inhibition (HTRF IC50) of KRas-mediated Phosphorylation of ERK, H727
pERK in A549 cells = experiment: as above; conditions: Homo sapiens, A549, read-out: Inhibition (HTRF IC50) of KRas-mediated Phosphorylation of ERK, A549
pERK in H460 cells = experiment: as above; conditions: Homo sapiens, NCI-H460, read-out: Inhibition (HTRF IC50) of KRas-mediated Phosphorylation of ERK, H460
KRas G12V = KRas G12V (Homo sapiens, UniProt P01116, G12V); experiment: biochemical;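 further: KRas binding measured by TR-FRET displacement at room temperature, IC50 fitted from percent of control values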
Protocol: as §2

pERK in ASPC1 cells = experiment: Inhibition of KRas phosphorylation of ERK (Cisbio HTRF pERK assay); conditions: Homo sapiens, ASPC1, read-out: Inhibition (HTRF IC50) of KRas-mediated Phosphorylation of ERK, AsPC-1
[1] = tested on: phospho-ERK in NCI-H727 (G12V) cells; experiment: Inhibition of KRas-mediated phosphorylation of ERK (in-cell western); type: cell-based; conditions: Homo sapiens, NCI-H727, 3 h, 3 hours compound, phospho-ERK normalized to GAPDH
Summary of the method: (§1)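 After a 3-hour incubation with diluted compound in 0.5% DMSO, cells are fixed, permeabilized and stained overnight at 4° C for phosphorylated ERK and GAPDH.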

[2] = tested on: phospho-ERK in AsPC-1 (G12D) cells; experiment: as above; type: cell-based; conditions: Homo sapiens, ASPC1, 3 h, 3 hours compound, phospho-ERK normalized to GAPDH
Summary of the method: as §1

[3] = tested on: phospho-ERK in NCI-H460 (Q61H) cells; experiment: as above; type: cell-based; conditions: Homo sapiens, NCI-H460, 3 h, 3 hours compound, phospho-ERK normalized to GAPDH
Summary of the method: as §1

Chain of KRas G12R (P01116 1-169 isoform P01116-2 G12R): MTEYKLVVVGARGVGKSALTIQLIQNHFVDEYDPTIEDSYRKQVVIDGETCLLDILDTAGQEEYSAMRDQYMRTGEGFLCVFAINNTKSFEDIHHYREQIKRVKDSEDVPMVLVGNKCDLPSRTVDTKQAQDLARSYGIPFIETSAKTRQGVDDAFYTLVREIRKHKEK
Chain of KRas G12V (P01116 1-169 isoform P01116-2 G12V): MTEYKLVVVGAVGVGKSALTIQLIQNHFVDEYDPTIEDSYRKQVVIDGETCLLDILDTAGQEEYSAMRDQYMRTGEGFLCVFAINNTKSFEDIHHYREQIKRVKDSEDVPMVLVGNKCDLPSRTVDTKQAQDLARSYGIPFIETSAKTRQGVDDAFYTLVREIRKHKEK
Chain of KRas G12D (P01116 1-169 isoform P01116-2 G12D): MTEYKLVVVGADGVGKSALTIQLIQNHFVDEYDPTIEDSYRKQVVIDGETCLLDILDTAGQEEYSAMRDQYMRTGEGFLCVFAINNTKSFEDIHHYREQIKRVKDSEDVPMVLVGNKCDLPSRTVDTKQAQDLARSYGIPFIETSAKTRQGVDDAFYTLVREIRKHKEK

SMILES | IC50 (pERK in H358 cells) [nM] | IC50 (KRas G12D) [nM] | IC50 (pERK in HCT116 cells) [nM] | IC50 (pERK in MKN1 cells) [nM] | IC50 (pERK in PSN1 cells) [nM] | IC50 (KRas G12R) [nM] | IC50 (pERK in H727 cells) [nM] | IC50 (pERK in A549 cells) [nM] | IC50 (pERK in H460 cells) [nM] | IC50 (KRas G12V) [nM] | IC50 (pERK in ASPC1 cells) [nM] | IC50 [1] [nM] | IC50 [2] [nM] | IC50 [3] [nM]
CCc1c(F)ccc2cc(O)cc(-c3ncc4c(N5CCC[C@]6(C5)C[C@H](O)C6)nc(OC[C@@]56CCCN5C[C@H](F)C6)nc4c3F)c12 (single isomer, unassigned) [Example 323] | 2 |  | 22 | 2 | 600 |  | 8 | 19 | 11 |  | 8 |  |  | 
CCc1c(F)ccc2cc(O)cc(-c3ncc4c(N5CCC[C@]6(C5)C[C@@H](O)C6)nc(OC[C@@]56CCCN5C[C@H](F)C6)nc4c3F)c12 (single isomer, unassigned) [Example 324] | 14 |  | 61 | 3 | 1440 |  | 22 | 95 | 99 |  | 35 |  |  | 
CCc1c(F)ccc2cc(O)cc(-c3ncc4c(N5CCC[C@]6(C5)NC(=O)NC6=O)nc(OC[C@@]56CCCN5C[C@H](F)C6)nc4c3F)c12 [Example 307, (R)-7-(7-(8-ethyl-7-fluoro-3-hydroxynaphthalen-1-yl)-8-fluoro-2-(((2R,7aS)-2-fluorohexahydro-1H-pyrrolizin-7a-yl)methoxy)pyrido[4,3-d]pyrimidin-4-yl)-1,3,7-triazaspiro[4.5]decane-2,4-dione] | 15 | ≤ 2 | 33 | 5 | 106 | ≤ 2 | 85 |  | 12 | ≤ 2 | 58 | 215 | 117 | 11
CCc1c(F)ccc2cc(O)cc(-c3ncc4c(N5CCCOCC5)nc(OC[C@@]56CCCN5C[C@H](F)C6)nc4c3F)c12 [Example 315, 5-ethyl-6-fluoro-4-(8-fluoro-2-(((2R,7aS)-2-fluorohexahydro-1H-pyrrolizin-7a-yl)methoxy)-4-(1,4-oxazepan-4-yl)pyrido[4,3-d]pyrimidin-7-yl)naphthalen-2-ol] | 5 |  | 24 | 5 | 1960 |  | 20 | 28 | 34 |  | 20 |  |  | 
CCc1c(F)ccc2cc(O)cc(-c3ncc4c(N5CCC[C@@](C)(O)C5)nc(OCC5(CN(C)C)CC5)nc4c3F)c12 [Example 316, (R)-1-(2-((1-((dimethylamino)methyl)cyclopropyl)methoxy)-7-(8-ethyl-7-fluoro-3-hydroxynaphthalen-1-yl)-8-fluoropyrido[4,3-d]pyrimidin-4-yl)-3-methylpiperidin-3-ol] | 9 |  | 30 | 1 | 2040 |  | 32 | 51 | 69 |  | 8 |  |  | 

Further lines, with some results ahead:

IC50 (pERK in H358 cells) [nM] | IC50 (KRas G12D) [nM] | IC50 (pERK in HCT116 cells) [nM] | IC50 (pERK in MKN1 cells) [nM] | IC50 (pERK in PSN1 cells) [nM] | IC50 (KRas G12R) [nM] | IC50 (pERK in H727 cells) [nM] | IC50 (pERK in A549 cells) [nM] | IC50 (pERK in H460 cells) [nM] | IC50 (KRas G12V) [nM] | IC50 (pERK in ASPC1 cells) [nM] | SMILES | IC50 [1] [nM] | IC50 [2] [nM] | IC50 [3] [nM]
10 | ≤ 2 | 381 | 14 | 6690 | ≤ 2 | 98 | 238 | 206 | ≤ 2 | 23 | CCc1c(F)ccc2cc(O)cc(-c3ncc4c(N5C[C@@H](CO)C[C@](C)(O)C5)nc(OC[C@@]56CCCN5C[C@H](F)C6)nc4c3F)c12 (mixture of isomers) [Example 327, (3RS,5RS)-1-(7-(8-ethyl-7-fluoro-3-hydroxynaphthalen-1-yl)-8-fluoro-2-(((2R,7aS)-2-fluorotetrahydro-1H-pyrrolizin-7a(5H)-yl)methoxy)pyrido[4,3-d]pyrimidin-4-yl)-5-(hydroxymethyl)-3-methylpiperidin-3-ol] |  |  | 
3 | ≤ 2 | 27 | 1 |  | ≤ 2 | 35 | 6 | 16 | ≤ 2 | 4 | CCc1c(F)ccc2cc(O)cc(-c3ncc4c(N5CCC[C@@](C)(O)C5)nc(OCC5(CN6CCCCC6)CC5)nc4c3F)c12 [Example 331, (R)-1-(7-(8-ethyl-7-fluoro-3-hydroxynaphthalen-1-yl)-8-fluoro-2-((1-(piperidin-1-ylmethyl)cyclopropyl)methoxy)pyrido[4,3-d]pyrimidin-4-yl)-3-methylpiperidin-3-ol] |  |  | 
3 | ≤ 2 | 48 | 2 | 710 | 3 | 31 | 13 | 22 | ≤ 2 | 6 | CCc1c(F)ccc2cc(O)cc(-c3ncc4c(N5CCC[C@@](C)(O)C5)nc(OCC5(CN6CCOCC6)CC5)nc4c3F)c12 [Example 332, (R)-1-(7-(8-ethyl-7-fluoro-3-hydroxynaphthalen-1-yl)-8-fluoro-2-((1-(morpholinomethyl)cyclopropyl)methoxy)pyrido[4,3-d]pyrimidin-4-yl)-3-methylpiperidin-3-ol] |  |  | 
59 | ≤ 2 | 208 | 4 | 4120 | ≤ 2 | 129 | 75 | 162 | ≤ 2 | 32 | CCc1c(F)ccc2cc(O)cc(-c3ncc4c(N5CCC[C@@](C)(O)C5)nc(OCC5(CN6CCN(C)CC6)CC5)nc4c3F)c12 [Example 336, (R)-1-(7-(8-ethyl-7-fluoro-3-hydroxynaphthalen-1-yl)-8-fluoro-2-((1-((4-methylpiperazin-1-yl)methyl)cyclopropyl)methoxy)pyrido[4,3-d]pyrimidin-4-yl)-3-methylpiperidin-3-ol] |  |  | 
95 | ≤ 2 | 826 | 12 | ≥ 10000 | ≤ 2 | 72 | 557 | 991 | ≤ 2 | 48 | CCc1c(F)ccc2cc(O)cc(-c3ncc4c(N5CCCn6nc(C(=O)NC)cc6C5)nc(OC[C@@]56CCCN5C[C@H](F)C6)nc4c3F)c12 [Example 339, 5-(7-(8-ethyl-7-fluoro-3-hydroxynaphthalen-1-yl)-8-fluoro-2-(((2R,7aS)-2-fluorotetrahydro-1H-pyrrolizin-7a(5H)-yl)methoxy)pyrido[4,3-d]pyrimidin-4-yl)-N-methyl-5,6,7,8-tetrahydro-4H-pyrazolo[1,5-a][1,4]diazepine-2-carboxamide] |  |  | 
11 |  | 30 | 5 | 859 |  | 19 | 20 | 60 |  | 15 | C[C@@]1(O)CCCN(c2nc(OC[C@@]34CCCN3C[C@H](F)C4)nc3c(F)c(-c4cc(O)cc5ccc(F)c(F)c45)ncc23)C1 [Example 514, (R)-1-(7-(7,8-difluoro-3-hydroxynaphthalen-1-yl)-8-fluoro-2-(((2R,7aS)-2-fluorohexahydro-1H-pyrrolizin-7a-yl)methoxy)pyrido[4,3-d]pyrimidin-4-yl)-3-methylpiperidin-3-ol] |  |  | 
7 | ≤ 2 | 24 |  |  | ≤ 2 | 19 | 36 | 19 | ≤ 2 | 35 | O=S1(=O)NC[C@]2(CCCN(c3nc(OC[C@@]45CCCN4C[C@H](F)C5)nc4c(F)c(-c5cc(O)cc6ccc(F)c(Cl)c56)ncc34)C2)N1 [Example 515, (R)-7-(7-(8-chloro-7-fluoro-3-hydroxynaphthalen-1-yl)-8-fluoro-2-(((2R,7aS)-2-fluorotetrahydro-1H-pyrrolizin-7a(SB)-yl)methoxy)pyrido[4,3-d]pyrimidin-4-yl)-2-thia-1,3,7-triazaspiro[4.5]decane2,2-dioxide] |  |  | 
